Values quoted from earlier work in US20190381034A1, “PHARMACEUTICAL COMPOSITION AND METHOD FOR ACUTE ON CHRONIC LIVER FAILURE AND RELATED LIVER DISEASES” (priority 2018, published 2019).

Columns and labels:
[1] = in vivo
[2] = laboratory test indicators, liver failure patients, oral TMZ 20 mg three times a day

**Q.** For `COc1ccc(CN2CCNCC2)c(OC)c1OC.Cl.Cl` [TMZ, 1-[2,3,4-trimethoxybenzyl] piperazine dihydrochloride], which liver toxicity (liver) is on record?
**A.** Its liver toxicity is “minimal liver toxicity”.

**Q.** What about the “30-day immortality rate of liver failure patients” value (liver failure patients; TMZ treatment group, 20 mg tablet orally three times a day, 4-week course, traditional therapeutic approach 44%) of the same molecule?
**A.** Its value is “approximately 18%”.

**Q.** What about the “90-day immortality rate of liver failure patients” value (liver failure patients; TMZ treatment group, 20 mg tablet orally three times a day, 4-week course, traditional therapeutic approach 68%) of the same molecule?
**A.** Its value is 35%.

**Q.** And the “decrease rate of alanine aminotransferase” value (liver failure patients; [2])?
**A.** The value was “significantly raise the decrease rate”.

**Q.** And the “decrease rate of aspartate transaminase” value (liver failure patients; [2])?
**A.** Its value is “significantly raise the decrease rate”.

**Q.** And the “hepatic glucose metabolism (PET-CT imaging of liver)” value (liver failure patients; one liver failure patient, after taking TMZ)?
**A.** The value was “remarkably improved”.

**Q.** And the elimination half-life [1]?
**A.** Its elimination half-life is “approximately 6 hours”.
